Experimental data: ChEMBL document CHEMBL3877300, “Design, synthesis, docking studies and biological evaluation of novel dihydro-1,3,5-triazines as human DHFR inhibitors” (Eur J Med Chem, 2017)

Assays:
Dihydrofolate reductase = target: T1, Dihydrofolate reductase (Homo sapiens, UniProt P00374); assay: Inhibition of recombinant human DHFR using DHF as substrate measured every 5 sec over 6 mins in presence of NADPH by UV-Visible spectrophotometric method relative to control
T1 sequence (P00374 whole entry): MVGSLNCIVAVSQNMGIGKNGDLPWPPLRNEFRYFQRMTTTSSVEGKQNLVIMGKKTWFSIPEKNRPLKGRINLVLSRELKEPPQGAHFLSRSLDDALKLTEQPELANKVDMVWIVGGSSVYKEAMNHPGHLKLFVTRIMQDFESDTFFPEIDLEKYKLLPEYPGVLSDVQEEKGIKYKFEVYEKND

[1] = Antiproliferative activity against human HL60 cells after 72 hrs by MTT assay; assay type: functional, cell-based; conditions: HL-60, 72 h
[2] = Antiproliferative activity against human HepG2 cells after 72 hrs by MTT assay; assay type: functional, cell-based; conditions: HepG2, 72 h
[3] = Antiproliferative activity against human MDA-MB-231 cells after 72 hrs by MTT assay; assay type: functional, cell-based; conditions: MDA-MB-231, 72 h, read-out: IC50
cells [4] = conditions: Homo sapiens, HCT-116, 72 h
Description: Antiproliferative activity against human HCT116 cells after 72 hrs by MTT assay

cells [5] = conditions: Homo sapiens, A549, 72 h
Description: Antiproliferative activity against human A549 cells after 72 hrs by MTT assay

[6] = Antitumor activity against human A549 cells xenografted in BALB/c nude mouse assessed as tumor growth inhibition at 2 mg/kg, ip administered 14 times in 22 days measured on day 4 post dose relative to control; assay type: functional; conditions: read-out: TGI
[7] = Antitumor activity against human A549 cells xenografted in BALB/c nude mouse assessed as tumor growth inhibition at 2 mg/kg, ip administered 14 times in 22 days measured on day 8 post dose relative to control; assay type: functional; conditions: read-out: TGI
[8] = Antitumor activity against human A549 cells xenografted in BALB/c nude mouse assessed as tumor growth inhibition at 2 mg/kg, ip administered 14 times in 22 days measured on day 11 post dose relative to control; assay type: functional; conditions: read-out: TGI
[9] = Antitumor activity against human A549 cells xenografted in BALB/c nude mouse assessed as tumor growth inhibition at 2 mg/kg, ip administered 14 times in 22 days measured on day 15 post dose relative to control; assay type: functional; conditions: read-out: TGI
[10] = Antitumor activity against human A549 cells xenografted in BALB/c nude mouse assessed as tumor growth inhibition at 2 mg/kg, ip administered 14 times in 22 days measured on day 18 post dose relative to control; assay type: functional; conditions: read-out: TGI
[11] = Antitumor activity against human A549 cells xenografted in BALB/c nude mouse assessed as tumor growth inhibition at 2 mg/kg, ip administered 14 times in 22 days measured on day 22 post dose relative to control; assay type: functional; conditions: 528 h, read-out: TGI
Mus musculus [12] = assay: Toxicity in BALB/c nude mouse xenografted with human A549 cells assessed as body weight at 2 mg/kg, ip administered 14 times in 22 days measured on day 1 post dose (reference value: 24.73 +/- 1.33 g); assay type: organism-based; conditions: in vivo, 528 h
Mus musculus [13] = assay: Toxicity in BALB/c nude mouse xenografted with human A549 cells assessed as body weight at 2 mg/kg, ip administered 14 times in 22 days measured on day 4 post dose (reference value: 24.84 +/- 1.22 g); assay type: organism-based; conditions: in vivo, 528 h
Mus musculus [14] = assay: Toxicity in BALB/c nude mouse xenografted with human A549 cells assessed as body weight at 2 mg/kg, ip administered 14 times in 22 days measured on day 8 post dose (reference value: 25.19 +/- 1.38 g); assay type: organism-based; conditions: in vivo, 528 h
Mus musculus [15] = assay: Toxicity in BALB/c nude mouse xenografted with human A549 cells assessed as body weight at 2 mg/kg, ip administered 14 times in 22 days measured on day 11 post dose (reference value: 24.99 +/- 0.97 g); assay type: organism-based; conditions: in vivo, 528 h
Mus musculus [16] = assay: Toxicity in BALB/c nude mouse xenografted with human A549 cells assessed as body weight at 2 mg/kg, ip administered 14 times in 22 days measured on day 15 post dose (reference value: 25.41 +/- 1.04 g); assay type: organism-based; conditions: in vivo, 528 h
Mus musculus [17] = assay: Toxicity in BALB/c nude mouse xenografted with human A549 cells assessed as body weight at 2 mg/kg, ip administered 14 times in 22 days measured on day 18 post dose (reference value: 25.66 +/- 1.16 g); assay type: organism-based; conditions: in vivo, 528 h
Mus musculus [18] = assay: Toxicity in BALB/c nude mouse xenografted with human A549 cells assessed as body weight at 2 mg/kg, ip administered 14 times in 22 days measured on day 22 post dose (reference value: 25.59 +/- 1.16 g); assay type: organism-based; conditions: in vivo, 528 h
[19] = Antitumor activity against human A549 cells xenografted in BALB/c nude mouse assessed as tumor volume at 2 mg/kg, ip administered 14 times in 22 days measured on day 1 post dose (reference value: 117.71 +/- 7.29 mm3); assay type: functional
[20] = Antitumor activity against human A549 cells xenografted in BALB/c nude mouse assessed as tumor volume at 2 mg/kg, ip administered 14 times in 22 days measured on day 4 post dose (reference value: 207.73 +/- 56.48 mm3); assay type: functional
[21] = Antitumor activity against human A549 cells xenografted in BALB/c nude mouse assessed as tumor volume at 2 mg/kg, ip administered 14 times in 22 days measured on day 8 post dose (reference value: 288.71 +/- 54.75 mm3); assay type: functional
[22] = Antitumor activity against human A549 cells xenografted in BALB/c nude mouse assessed as tumor volume at 2 mg/kg, ip administered 14 times in 22 days measured on day 11 post dose (reference value: 373.93 +/- 59.98 mm3); assay type: functional
[23] = Antitumor activity against human A549 cells xenografted in BALB/c nude mouse assessed as tumor volume at 2 mg/kg, ip administered 14 times in 22 days measured on day 15 post dose (reference value: 502.27 +/- 69.26 mm3); assay type: functional
[24] = Antitumor activity against human A549 cells xenografted in BALB/c nude mouse assessed as tumor volume at 2 mg/kg, ip administered 14 times in 22 days measured on day 22 post dose (reference value: 912.28 +/- 140.04 mm3); assay type: functional

Structure (SMILES)	IC50 (Dihydrofolate reductase) [µM]	IC50 [1] [µM]	IC50 [2] [µM]	IC50 [3] [µM]	IC50 (cells [4]) [µM]	IC50 (cells [5]) [µM]	also measured
NC1=NC2(CCSCC2)N(OCCCOc2ccc(Cl)cc2)C(N)=N1	0.0183	0.43	1.1	0.35	0.01	0.58	–
NC1=NC2(CCSCC2)N(OCCCOc2ccc(Br)cc2)C(N)=N1	0.00646	0.35	1.4	0.44	0.02	0.74	–
NC1=NC2(CCOCC2)N(OCCCOc2ccc(F)cc2)C(N)=N1	0.0466	2.38	–	–	3.28	1.06	–
NC1=NC2(CCOCC2)N(OCCCOc2ccc(Cl)c(Cl)c2)C(N)=N1	0.00823	1.24	0.38	0.59	0.09	0.79	–
CN(Cc1cnc2nc(N)nc(N)c2n1)c1ccc(C(=O)N[C@@H](CCC(=O)O)C(=O)O)cc1 [METHOTREXATE]	–	1.09	0.41	9.49	0.75	0.25	inhibition in vivo at 2 mg/kg [6]: 24.6%; inhibition in vivo at 2 mg/kg [7]: 32.7%; inhibition in vivo at 2 mg/kg [8]: 29.2%; inhibition in vivo at 2 mg/kg [9]: 45%; inhibition in vivo at 2 mg/kg [10]: 50.6%; inhibition in vivo at 2 mg/kg [11]: 50.8%; Activity (Mus musculus [12]): 25.28 g; Activity (Mus musculus [13]): 25.47 g; Activity (Mus musculus [14]): 24.88 g; Activity (Mus musculus [15]): 23.98 g; Activity (Mus musculus [16]): 21.85 g; Activity (Mus musculus [17]): 21.62 g; Activity (Mus musculus [18]): 21.4 g; Activity [19]: 115.14 mm3; Activity [20]: 153.09 mm3; Activity [21]: 189.83 mm3; Activity [22]: 223.6 mm3; Activity [23]: 271.71 mm3; Activity [24]: 440.75 mm3
